Where “and” joins values, the source holds several entries; their conditions need not be identical. Identical values can stand only once.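 Values below derive from 48-hour exposures of cells grown in 96-well plates, with endpoints linearly interpolated between the two concentrations bracketing the appropriate inhibition level. The concentration for 50% growth inhibition is given as GI50. TGI marks complete inhibition of growth.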
What was measured:
Experiment in all cases: growth of human tumour cells (NCI), 48 h
ACHN renal = tested on: ACHN renal
LOX IMVI melanoma = tested on: LOX IMVI melanoma
SNB-75 CNS = tested on: SNB-75 CNS
SNB-19 CNS = tested on: SNB-19 CNS
MALME-3M melanoma = tested on: MALME-3M melanoma
U251 CNS = tested on: U251 CNS
UO-31 renal = tested on: UO-31 renal
RPMI-8226 leukemia = tested on: RPMI-8226 leukemia
KM12 colon = tested on: KM12 colon
RXF 393 renal = tested on: RXF 393 renal

Row | SMILES | GI50 (ACHN renal) | TGI (ACHN renal) | GI50 (LOX IMVI melanoma) | TGI (LOX IMVI melanoma) | GI50 (SNB-75 CNS) | TGI (SNB-75 CNS) | GI50 (SNB-19 CNS) | TGI (SNB-19 CNS) | GI50 (MALME-3M melanoma) | TGI (MALME-3M melanoma) | GI50 (U251 CNS) | TGI (U251 CNS) | GI50 (UO-31 renal) | TGI (UO-31 renal) | GI50 (RPMI-8226 leukemia) | TGI (RPMI-8226 leukemia) | GI50 (KM12 colon) | TGI (KM12 colon) | GI50 (RXF 393 renal) | TGI (RXF 393 renal)
1 | O=C(c1ccccc1Nc1ccnc(C(F)(F)F)c1)N1CCN(c2cccc(Cl)c2)CC1 | 22.9 µM | 86.1 µM | 15.8 µM | 32.2 µM | 26 µM | > 92.2 µM | 26.1 µM | > 100 µM | 23.1 µM | 69.3 µM | 24.5 µM | 99.4 µM | 13.7 µM | 68.1 µM | 6.3 µM | 48 µM | 25.7 µM | > 80.2 µM | 16.3 µM | 64.8 µM
2 | CC(=O)OCC1OC(OC2C(COC(C)=O)OC(OCCC[S-])C(OC(C)=O)C2OC(C)=O)C(OC(C)=O)C(OC(C)=O)C1OC(C)=O.[Au+].c1ccc(CN2[CH-]N(Cc3ccccc3)C(c3ccccc3)=C2c2ccccc2)cc1 (stereo unspecified) | 2.9 µM | 10.6 µM | 3.42 µM | 13.6 µM | 2.86 µM | 17 µM | 3.66 µM | 15.2 µM | 2.19 µM | 6.56 µM | 2.77 µM | 7.47 µM | 2.61 µM | 10.7 µM | 2.78 µM | 11.1 µM | 3.8 µM | 16.1 µM | 3.28 µM | 12.3 µM
3 | CCCS(=O)(=O)Nc1ccc(F)c(C(=O)c2c[nH]c3ncc(-c4ccc(Cl)cc4)cc23)c1F | 3.92 µM and 4.77 µM | 15.9 µM and > 10 µM | 1.47 µM and 1.27 µM | 15.2 µM and > 10 µM | 2.48 µM and 2.38 µM | 16.6 µM and > 10 µM | 6.56 µM and > 10 µM | 29.6 µM and > 10 µM | 0.0161 µM and 0.0331 µM | 0.0772 µM | 3.37 µM and 4.02 µM | 15.9 µM and > 10 µM | 4.96 µM and 4.79 µM | 15.1 µM and > 10 µM | 3.9 µM and 6.36 µM | 37.4 µM and > 10 µM | 4.17 µM and 6.02 µM | 16.8 µM and > 10 µM | 1.89 µM and 3.53 µM | 6.58 µM and > 10 µM
4 | COc1ccc(OC)c(-c2nc3sccn3c2/C=C2/C(=O)Nc3ccc(Cl)cc32)c1 | 30.8 µM | > 100 µM | 18.2 µM | 40.5 µM | 19.7 µM | 48.6 µM | 33.6 µM | > 100 µM | 30.8 µM | 80.8 µM | 24.9 µM | 74.1 µM | 23.6 µM | 81.8 µM | 26.9 µM | 94.8 µM | 35.8 µM | > 100 µM | 27.6 µM | > 100 µM
5 | Cc1ccc2nc3c(C)c(Cl)c(=O)cc-3sc2c1 | – | 87.3 µM | – | 33.6 µM | – | 56.3 µM | – | > 100 µM | – | > 71.5 µM | – | > 91.5 µM | – | 67.4 µM | – | > 52.3 µM | – | 74.1 µM | – | 73.7 µM
6 | CN(C)C[C@H]1CC[C@@H](CN(C)C)C1=O | – | 15.1 µM | – | 14.2 µM | – | > 28.7 µM | – | > 50 µM | – | 7.25 µM | – | > 40.4 µM | – | 23.1 µM | 1.17 µM | > 12.9 µM | – | 27.5 µM | – | 16.8 µM
7 | C(=N\Nc1nnc2c(n1)[nH]c1ccccc12)/c1cccnc1 | – | > 100 µM | – | > 100 µM | – | > 100 µM | – | > 100 µM | – | > 100 µM | – | > 100 µM | – | > 100 µM | – | > 100 µM | – | > 100 µM | – | > 100 µM
8 | COc1ccc(C(=O)c2cc(OC)c(OC)c(OC)c2)cc1OC(C)=O | 0.0379 µM | > 100 µM | 0.022 µM | > 100 µM | < 0.0145 µM | > 100 µM | 0.0381 µM | > 100 µM | 35.4 µM | > 100 µM | 0.0392 µM | > 100 µM | 0.195 µM | > 100 µM | 0.0324 µM | 26.8 µM | < 0.0133 µM | > 100 µM | 0.0391 µM | > 100 µM
